Laboratory results reported in patent EP2753335B1, “AN ANTHRACYCLINE FOR THE TREATMENT OF SEPSIS” (Instituto de Medicina Molecular, priority 2011, dated 2013).
Where a name gives a salt, the structure may show the parent alone. Read-outs that look alike come from different tables or passages of the source. Starred links: 1 amine or outer side, 2 acyl side, 3 side chain; linkers in the order of their positions; H or OH if unused. Positions of bridges follow the written chain, without caps; N, C: chain ends. Non-standard residues stand in square brackets, D forms with d. Residues, ends and D or L forms follow the SMILES beside them. Chains are numbered I, II in the order given. Actinocin(9to1) = Cc1c2oc3c(C)ccc(C(=O)[*:1])c3nc-2c(C(=O)[*:2])c(N)c1=O; NMeV = CN[C@H](C(=O)O)C(C)C; Sar = CNCC(=O)O

Assays:
TNF = assay: In vitro chemical screen (Spectrum collection): TNF secretion by E. coli challenged THP-1 cells, DAS-ELISA; format: cell-based, human
Protocol: (§1) We identified 45 leading candidates (Figure 1A and Table I) that inhibited both cytokines.
(§2) THP-1 human monocytes (American Tissue Culture Collection-ATCC TIB-202) were plated in 96 well plates at 10^6 cell/ml and incubated with each one of ∼2320 compounds included in the Spectrum collection (Microsource Discovery Systems, Gaylordsville, CT) at 10µM for 1 hour. Cells were then challenged with 4% PFA-fixed DH5α E.coli at a Multiplicity of Infection (MOI) of 20 bacterial cells per THP-1 cell for an additional 24 hours. The cell supernatants were collected and IL-1β and TNF cytokines quantified by DAS-ELISA, using Human IL-1β/IL-1F2 DuoSet® and Human TNF DuoSet® (R&D Systems ®), respectively, according to company's protocol.
(§3) We generated a working subset of The RNAi Consortium (TRC) shRNA lentiviral vector library ^33,33 that allows for the silencing of most of the genes that are either human kinases or phosphatases. This subset was composed of 1440 individually arrayed lentiviral shRNA vectors targeting ∼700 genes, after selecting the most efficient shRNAs (two on average) based on available silencing efficiency data from the Broad Institute of MIT and Harvard. THP-1 cells were plated in 96 well plates at 10^6 cell/ml and infected with shRNA-expressing lentivirus. 48 hrs later infected cells were selected with puromycin. After the 3 days of selection, plates were duplicated. One of the plates was used to measure the cell number using Alamar Blue® cell viability assay (Invitrogeia®), according to manufacturer's instructions. In the other plate, cells were stimulated with 4% PFA-fixed DH5α E.coli at a Multiplicity of Infection (MOI) of 20 bacterial cells per THP-1 cell. Twenty-four hours after stimulation, cell supernatants were collected and IL-1β and TNF cytokines quantified by DAS-ELISA. All data values from IL-1β and TNF secretion assays were normalized by dividing the amount of IL-1β and TNF in the conditioned media 24, 12, 8, 6, 4 or 2 hrs after E. coli stimulation by the number of cells in each well and then by the average concentration per cell of the plate. Results were logarithmic natural transformed. Scores were sorted in ascending order and graphed. We calculated 1.5 SDEVs above and below the mean to identify the genes that changed IL-1β and TNF secretion when silenced. The same approach was used to identify the compounds that changed IL-1β and TNF secretion. The selected genes were submitted to two or more rounds of phenotypic validation.

IL-1β = assay: In vitro chemical screen (Spectrum collection): IL-1β secretion by E. coli challenged THP-1 cells, DAS-ELISA; format: cell-based, human
Protocol: as §1, §2, §3

[1] = THP-1 cells, 10µM compound for 1 hour, then PFA-fixed E. coli (MOI 20) for 24 hours

Row | Structure (SMILES) | Z score TNFa (TNF; [1]) | Z score IL1b (IL-1β; [1]) | Z score TNFa (TNF) | Z score IL1b (IL-1β)
1 | C[C@H](NCCc1ccc(O)cc1)[C@H](O)c1ccc(O)cc1 (racemic) [Ritodrine hydrochloriide] | -2,149761571 | -1,268303571 |  | 
2 | O=C1C=CC(=O)c2ccccc21 [1,4-naphthoquinone] | -2,77797604 | -1,349015947 |  | 
3 | CC1(C)C(=O)C=C[C@]2(C)[C@H]3CC[C@@]4(C)[C@H](c5ccoc5)OC(=O)[C@H]5O[C@]54[C@]3(C)C=C[C@@H]12 [7-desacetoxy-6,7-dehydrogedunin] | -2,517707805 | -1,789647817 |  | 
4 | CC(=O)Oc1c2c(c(CC=C(C)C)c3c1C(=O)C1=C[C@@H]4CC5C(C)(C)OC(C/C=C(\C)C(=O)O)(C4=O)[C@@]15O3)OC(C)(CCC=C(C)C)C=C2 (stereo partly drawn) [Acetyl isogambogic acid] | -3,056795183 | -1,48116787 |  | 
5 | CCCCCCc1ccc(O)cc1O.Nc1c2ccccc2nc2ccccc12 [Acrisorcin] | -3,10607388 | -0,959612692 |  | 
6 | CC[C@@]1(O)C[C@H](O[C@H]2C[C@H](N(C)C)[C@H](O)[C@H](C)O2)c2c(cc3c(c2O)C(=O)c2c(O)cccc2C3=O)[C@H]1C(=O)OC [Aklavine hydrochloride] | -3,511681732 | -1,408917561 |  | 
7 | CCC(=O)OCC(=O)[C@@]1(OC(=O)CC)[C@H](C)C[C@H]2[C@H]3[C@H]([C@@H](O)C[C@@]21C)[C@@]1(C)C=CC(=O)C=C1C[C@H]3Cl [Alclometazone dipropionate] | -1,999200408 | -0,922964076 |  | 
8 | CCCCC(CC)CNC(=N)NC(=N)NCCCCCCNC(=N)NC(=N)NCC(CC)CCCC (stereo not drawn) [Alexidine hydrochloride] | -2,648173863 |  |  | 
9 | CC(=O)O[C@@H]1C[C@@]2(C)[C@H](c3ccoc3)C[C@H]3O[C@]32[C@]2(C)C(=O)C(O)=C3C(C)(C)C(=O)C=C[C@]3(C)[C@@H]12 [Anthothecol] | -2,834385142 | -1,868706598 |  | 
10 | S=C=NCc1ccccc1 [Benzyl isothiocyanate] | -2,908582737 | -1,034306584 |  | 
11 | CC(=O)OCC(=O)[C@@]1(O)[C@@H](C)C[C@H]2[C@@H]3CCC4=CC(=O)C=C[C@]4(C)[C@@]3(F)[C@@H](O)C[C@@]21C [Betamethasone acetate] | -2,560814606 | -0,950513609 |  | 
12 | CC1(C)C(=O)C=C[C@@]2(C)C1=C(O)C(=O)[C@]1(C)[C@@H]2CC[C@@]2(C)[C@H](c3ccoc3)C[C@H]3O[C@]321 [Cedrelone] | -2,817231786 | -1,852572153 |  | 
13 | CC1=C(O)C(=O)C=C2C1=CC=C1[C@@]2(C)CC[C@@]2(C)[C@@H]3C[C@](C)(C(=O)O)CC[C@]3(C)CC[C@]12C [Celastrol] | -2,941287145 | -1,499560887 |  | 
14 | C=C1C(=O)O[C@H]2C[C@@H]1C(OC(C)=O)C/C(C)=C/CC/C(C)=C/CC[C@@]2(C)O (stereo partly drawn) [Crassin acetate] | -4,448741528 | -2,126298968 |  | 
15 | Cc1c2oc3c(C)ccc(C(=O)N[C@@H]4C(=O)N[C@H](C(C)C)C(=O)N5CCC[C@H]5C(=O)N(C)CC(=O)N(C)[C@@H](C(C)C)C(=O)O[C@@H]4C)c3nc-2c(C(=O)N[C@@H]2C(=O)N[C@H](C(C)C)C(=O)N3CCC[C@H]3C(=O)N(C)CC(=O)N(C)[C@@H](C(C)C)C(=O)O[C@@H]2C)c(N)c1=O [Dactinomycin] (I: T[dV]P[Sar][NMeV] / II: T[dV]P[Sar][NMeV]; ester I:1-I:C, II:1-II:C; linker I:N-II:N via Actinocin(9to1)) | -4,13760156 | -1,187827575 |  | 
16 | CC1(C)O[C@@H]2C[C@H]3[C@@H]4CCC5=CC(=O)C=C[C@]5(C)[C@H]4[C@@H](O)C[C@]3(C)[C@]2(C(=O)CO)O1 [Desonide] | -2,297715909 | -0,945977097 |  | 
17 | C[C@@H]1C[C@H]2[C@@H]3CCC4=CC(=O)C=C[C@]4(C)[C@@]3(F)[C@@H](O)C[C@]2(C)[C@H]1C(=O)CO [Desoxymetasone] | -2,417754689 | -0,995122645 |  | 
18 | Cc1c(O)c(O)cc2c1CC=C1[C@@]2(C)CC[C@@]2(C)[C@@H]3C[C@](C)(C(=O)O)CC[C@]3(C)CC[C@]12C [Dihydrocelastrol] | -3,387513735 | -1,102010407 |  | 
19 | CC(C)=CCCC1(C)C=Cc2c(O)c3c(c(CC=C(C)C)c2O1)OC12C(=CC4CC1C(C)(C)OC2(C/C=C(/C)C(=O)O)C4O)C3=O (stereo not drawn) [Dihydrogambogic acid] | -2,488781431 | -1,48996453 |  | 

Row | Structure (SMILES) | Z score TNFa (TNF; [1]) | Z score IL1b (IL-1β; [1]) | Z score TNFa (TNF) | Z score IL1b (IL-1β)
20 | CS(=O)(=O)CCCCN=C=S [Erysolin] | -4,442389411 | -1,162701697 |  | 
21 | CCOc1ccc2nc3cc(N)ccc3c(N)c2c1 [Ethacridine lactate] | -2,218841761 | -1,389229184 |  | 
22 | CC(C)=CCC[C@]1(C)C=Cc2c(O)c3c(c(CC=C(C)C)c2O1)O[C@]12C(=C[C@@H]4CC1C(C)(C)O[C@@]2(C/C=C(/C)C(N)=O)C4=O)C3=O [Gambogic acid amide] | -3,013926221 | -1,517154207 |  | 
23 | CC(C)=CCC[C@]1(C)C=Cc2c(O)c3c(c(CC=C(C)C)c2O1)O[C@]12C(=C[C@@H]4C[C@H]1C(C)(C)O[C@@]2(C/C=C(/C)C(=O)O)C4=O)C3=O [Gambogic acid] | -3,862359373 | -1,529656531 |  | 
24 | CN(C)c1ccc(C(=C2C=CC(=[N+](C)C)C=C2)c2ccc(N(C)C)cc2)cc1 [Gentian violet] | -2,696385799 | -1,835724332 |  | 
25 | C=C1C(=O)O[C@@H]2C[C@@]3(C)CCC[C@H](C)C3=C[C@H]12 [Helenine] | -2,683894042 | -0,943744357 |  | 
26 | CCCCC(=O)O[C@]1(C(=O)CO)CC[C@H]2[C@@H]3CCC4=CC(=O)CC[C@]4(C)[C@H]3[C@@H](O)C[C@@]21C [Hydrocortisone valerate] | -2,794271243 | -2,722889618 |  | 
27 | COc1cc2oc3cc(OC)c(OC)c(CC=C(C)C)c3c(=O)c2c(OC)c1CC=C(C)C [Mangostin trimethyl ether] | -3,162805301 | -1,634164354 |  | 
28 | O=C1c2c(O)ccc(O)c2C(=O)c2c(NCCNCCO)ccc(NCCNCCO)c21 [Mitoxanthrone hydrochloride] | -2,562729474 | -1,158920135 |  | 
29 | COC1=CC(=O)C(O)=C/C1=C\C=C\c1ccccc1 [Obtusaquinone] | -3,829374842 | -1,532189516 |  | 
30 | O=C1C=C2C(=CCOC2O)O1 (stereo not drawn) [Patulin] |  |  | -2,874616362 | -0,902703858
31 | CC(C)=CC1C(C(=O)OCc2cccc(Oc3ccccc3)c2)C1(C)C (stereo not drawn) [Phenothrin] | -2,810792588 | -0,983918754 |  | 
32 | C[C@]12C=CC(=O)C=C1CC[C@@H]1[C@@H]2[C@@H](O)C[C@@]2(C)[C@H]1CC[C@]2(O)C(=O)COC(=O)CCC(=O)O [Prednisolone hemisuccinate] | -2,72427413 | -2,095888301 |  | 
33 | COC(=O)[C@]1(C)CC[C@]2(C)CC[C@]3(C)C4=CC=C5C(=CC(=O)C(O)=C5C)[C@]4(C)CC[C@@]3(C)[C@@H]2C1 [Pristimerin] | -3,474946679 | -0,952562058 |  | 
34 | CC[C@@]1(O)C[C@H](O[C@H]2C[C@H](N(C)C)[C@H](O)[C@H](C)O2)c2c(cc3c(c2O)C(=O)c2c(O)ccc(O)c2C3=O)[C@H]1C(=O)OC [Pyrromycin] | -2,980583694 | -1,456377283 |  | 
35 | Cc1cc(/C=C/c2ccc3cc(N(C)C)ccc3[n+]2C)c(C)n1-c1ccccc1 [Pyrvinium pamoate] | -2,268148981 | -1,683811286 |  | 
36 | C[n+]1cc2c3c(ccc2c2ccc4cc5c(cc4c21)OCO5)OCO3 [Sanguinarine sulfate] | -2,651620816 | -1,160017114 |  | 
37 | C[C@H]1CC[C@]2(NC1)O[C@H]1C[C@H]3[C@@H]4CC[C@H]5C[C@@H](O[C@@H]6O[C@H](CO)[C@H](O[C@@H]7O[C@H](CO)[C@@H](O)[C@H](O[C@@H]8OC[C@@H](O)[C@H](O)[C@H]8O)[C@H]7O[C@@H]7O[C@H](CO)[C@@H](O)[C@H](O)[C@H]7O)[C@H](O)[C@H]6O)CC[C@]5(C)[C@H]4CC[C@]3(C)[C@H]1[C@@H]2C [Tomatine] | -4,440219344 | -2,626087357 |  | 
38 | C=C1C(=O)O[C@@H]2[C@H]3O[C@]3(C)CC/C=C(\C)CC[C@@H]12 [parthenolide] | -2,842267433 | -0,921962794 |  | 
